What is called IC50 is the concentration that inhibits the measured activity by half.

The target of the experiment is T1, Cdc25A (Homo sapiens, UniProt P30304).
T1 sequence (P30304 1-524): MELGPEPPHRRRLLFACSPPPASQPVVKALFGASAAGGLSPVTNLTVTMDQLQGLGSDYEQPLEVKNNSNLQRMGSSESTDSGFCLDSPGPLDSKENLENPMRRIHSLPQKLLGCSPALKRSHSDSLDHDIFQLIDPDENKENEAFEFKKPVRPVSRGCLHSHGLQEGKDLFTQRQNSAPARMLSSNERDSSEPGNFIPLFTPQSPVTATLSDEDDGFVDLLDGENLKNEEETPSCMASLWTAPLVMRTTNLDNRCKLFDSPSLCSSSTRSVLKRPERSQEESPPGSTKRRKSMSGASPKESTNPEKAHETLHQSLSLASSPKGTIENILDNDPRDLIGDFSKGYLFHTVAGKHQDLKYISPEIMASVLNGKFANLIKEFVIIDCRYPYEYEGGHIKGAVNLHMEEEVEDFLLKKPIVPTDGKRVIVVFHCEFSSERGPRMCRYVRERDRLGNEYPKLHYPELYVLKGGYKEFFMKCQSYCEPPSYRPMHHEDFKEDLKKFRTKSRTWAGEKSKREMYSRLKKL
As to the kind of experiment: OMFP phosphatase assay, […] min pretreatment. It is filed as biochemical.

Regarding `CCOC(=O)[C@@H](N)CSN=O` [SNCEE, S-nitrosocysteine ethyl ester], the IC50 was 22.5 ± 6.2 µM.
